From publication PMC6360668, “Discovery and evaluation of ZT55, a novel highly-selective tyrosine kinase inhibitor of JAK2^V617F against myeloproliferative neoplasms” (Journal of Experimental & Clinical Cancer Research : CR, 2019)

Target: JAK2 (Homo sapiens, UniProt O60674)
Assay: HTRF KinEASE cell-free kinase assay with recombinant human JAK2
Assay type: biochemical

Sequence of JAK2 (O60674 whole entry): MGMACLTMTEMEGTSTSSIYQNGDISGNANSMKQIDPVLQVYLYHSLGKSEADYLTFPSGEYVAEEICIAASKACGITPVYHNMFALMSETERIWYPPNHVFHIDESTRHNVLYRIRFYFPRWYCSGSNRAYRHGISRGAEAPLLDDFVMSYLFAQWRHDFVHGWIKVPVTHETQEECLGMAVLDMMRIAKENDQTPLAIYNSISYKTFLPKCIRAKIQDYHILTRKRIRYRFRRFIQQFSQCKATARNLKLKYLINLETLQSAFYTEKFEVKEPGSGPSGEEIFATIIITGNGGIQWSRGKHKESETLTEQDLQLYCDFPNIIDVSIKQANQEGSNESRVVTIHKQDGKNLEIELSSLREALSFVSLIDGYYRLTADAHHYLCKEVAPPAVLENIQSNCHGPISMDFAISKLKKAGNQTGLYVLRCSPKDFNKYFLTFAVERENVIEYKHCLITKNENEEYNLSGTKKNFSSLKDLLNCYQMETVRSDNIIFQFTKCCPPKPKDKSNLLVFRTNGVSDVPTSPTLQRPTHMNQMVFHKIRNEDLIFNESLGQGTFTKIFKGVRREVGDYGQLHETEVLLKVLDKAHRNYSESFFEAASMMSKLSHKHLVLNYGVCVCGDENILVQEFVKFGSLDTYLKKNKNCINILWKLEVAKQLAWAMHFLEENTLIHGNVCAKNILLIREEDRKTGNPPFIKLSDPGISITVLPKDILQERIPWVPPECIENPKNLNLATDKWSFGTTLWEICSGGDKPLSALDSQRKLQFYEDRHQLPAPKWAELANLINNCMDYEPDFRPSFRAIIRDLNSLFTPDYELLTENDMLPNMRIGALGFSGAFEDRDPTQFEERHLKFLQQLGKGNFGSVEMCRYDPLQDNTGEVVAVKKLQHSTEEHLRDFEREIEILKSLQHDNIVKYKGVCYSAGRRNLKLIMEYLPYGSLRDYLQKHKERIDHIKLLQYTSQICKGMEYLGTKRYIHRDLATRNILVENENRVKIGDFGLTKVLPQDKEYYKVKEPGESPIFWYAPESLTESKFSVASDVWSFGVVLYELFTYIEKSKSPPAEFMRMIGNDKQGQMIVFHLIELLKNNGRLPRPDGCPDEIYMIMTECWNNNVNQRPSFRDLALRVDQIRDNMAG

IC50: 31 nM
Compound: COc1ccccc1NC(=O)Cc1cn(O)c2ccccc12 [ZT55]
